The values that follow come from patent publication US7981878B2, “Tumor treatment with gliotoxin derivatives” (priority 2005, dated 2011).

Assay [1] has as its system Nec (cholangiocellular carcinoma). In words: Cell count analysis Nec. In kind it is cell-based, human. The following applies: 200 nM gliotoxin, 72 h. Here is the method:
(§1) FIG. 8 a-d: Effects of gliotoxin on cell counts of various human tumour cell lines in vitro. Cell counts of a) hepatocellular carcinoma cell lines HepG2, Huh7, SNU398, Hep3b, HeLa (cervix) and the cholangiocarcinoma cell line NEC as well as b) the pancreatic cancer cell line Panc-1 and the melanoma cell lines d) MelJuso, Meljuso-Bcl-2 (+) and 607B after 72 h treatment with 200 nM gliotoxin; c-d) Cell count dose range experiments with c) pancreatic carcinoma cell lines Panc-1 and MiaPaCa as well as melanoma cell lines MelJuso, 518A2 and 607B using 25, 50 100 and 200 nM gliotoxin for 24 h. All data are given relative to control ±standard deviation.
(§2) Tumour cells were seeded at a density of 10,000 cells/well in 24-well plates. 24 h after seeding, medium containing gliotoxin was added to yield desired concentrations of gliotoxin. At time points indicated, culture medium was removed by suction. Adherent cells were washed with DPBS (Cambrex, Verviers, Belgium) and incubated with trypsin (Gibco) at 37° C. Detached cells were transferred to test tubes containing Cellpack isotonic fluid (Sysmex Europe, Bornbarch, Germany) and counted with a Coulter Z1 electronic cell counter (Beckman Coulter, Bedford, UK).

Assay [2] deals with Panc-1 (pancreatic cancer). In words: Apoptosis flow cytometry (Annexin V / 7-AAD) Panc-1. In kind it is cell-based, human. The settings on record: Panc-1, 200 nM gliotoxin, 24 h. On the procedure: (§3) FIG. 10 a-b: Effects of gliotoxin on Notch2 regulation and apoptosis. The melanoma cell line 518A2 (A) and the pancreatic cancer cell line Panc-1 (B) were treated with 200 nM gliotoxin or vehicle control for 24 h Notch2 activity was analysed by band shift assay. Apoptosis was measured as annexin V and 7-AAD double positivity by FACS. Data are given as percentage of apoptotic cells ±standard deviation.
Tumour cells were seeded at a density of 50,000 cells/well in 6 well plates. 24 h after seeding, medium containing gliotoxin was added to yield desired concentrations of gliotoxin. After further 24 h cells were harvested, counted and washed twice with PBS. Then, 100,000 cells were resuspended in 100 μl binding buffer and stained with Annexin V-PE and 7-AAD (both Becton Dickinson, N.J., USA) according to manufacturer's recommendations. After 20 minutes incubation time at room temperature in the dark, 400 μl binding buffer was added and immediately analyzed on a FACScalibur flow cytometer using CellQuest software (both Becton Dickinson, N.J., USA)
Background: A flow cytometer gives signals particle by particle.

The next assay has as its system Notch2. In words: Notch2 activity band shift assay in Panc-1. In kind it is cell-based, human. The settings on record: Panc-1, 200 nM gliotoxin, 24 h. Here is the method:
as §3
500,000 cells were seeded on 12 cm^2 plates for 24 h and then treated with 200 nM gliotoxin. At the time points as indicated cells were harvested and immediately frozen at −80° C. The band shift assay was performed as described for B-CLL.

Assay [3] relates to HepG2 (hepatocellular carcinoma). In words: Cell count analysis HepG2. In kind it is cell-based, human. The settings on record: HepG2, 200 nM gliotoxin, 72 h. On the procedure: as §1, §2
The next assay has as its system B-CLL cells. In words: Apoptosis of B-CLL cells by FACS (Probidium iodide/annexinV). In kind it is cell-based, human. The settings on record: for apoptosis: 0.2 μM gliotoxin, 4 hours. Here is the method:
FIG. 3: Gliotoxin is a potent Notch2 trans-activation inhibitor in B-CLL cells. (A) EMSA showing the inhibition of DNA-bound Notch2IC complexes in the presence of 0.2 μg Gliotoxin. B-CLL samples (n=10) were cultured in the presence of 1 ng/ml TPA with or without 0.2 μM Gliotoxin for 24 hours. Nuclear extracts were subjected to EMSA using a oligonucleotide probe spanning a well defined CBF1/NotchIC binding site derived from the CD23a promoter. (B). Corresponding FACS analysis (plus 10 additional B-CLL samples) showing the downregulation of the Notch2 target gene CD23 as well as the induction of apoptosis of Gliotoxin treated B-CLL samples. Columnes represent the percentage of CD19^+CD23^+ (grey bars) and apoptotic cells (black bars: including early apoptotic cells single positive for AnnexinV, and late apoptotic cells double positive for AnnexinV and probidium iodide), respectively.
FIG. 4: Gliotoxin induces apoptosis in unstimulated as well as in TPA-stimulated B-CLL cells within 4 hours. Normal PBMCs (peripheral blood mononuclear cells) from healthy donors show a markedly lower Notch2 activity. Although gliotoxin inhibits Notch2 also in normal, TPA-stimulated cells, the gliotoxin-caused apoptosis rate is markedly lower in normal cells as compared to B-CLL cells. Non-stimulated and TPA stimulated PBMC's from healthy donors (HD) are less sensitive to 0.2 μM Gliotoxin despite a basal Notch2 activity. PBMC's and CLL cells were incubated with 0.2 μM Gliotoxin with or without TPA for 4 hours and the Notch2 activity as well as the percentage of apoptotic cells were determined by EMSA and FACS analysis, respectively.
As drug screening model, a cell culture system was established which conserves the phenotype of freshly isolated B-CLL cells (3×10^6 B-CLL cells/ml RPMI medium+10% FCS, supplemented with 1 ng/ml of TPA). Notch2 activity in the cell nucleus is determined by means of EMSA (electrophoretic mobility shift assay) experiments, and the cell viability (Probidium iodide/annexinV) and CD23 expression (Notch2 target gene) is determined by means of FACS (flow cytometry) analyses, respectively.
B-CLL cells were cultured for 24 h in the presence of 0.2 μM/ml of gliotoxin. This treatment led to a dramatic loss of the transcriptional Notch2 activity, as shown in the following representative EMSA (FIG. 3).
After 4 hours of gliotoxin treatment, massive signs of the starting apoptosis (AnnexinV+) could already be recognized in B-CLL cells. This effect was increased by TPA (a phorbol ester which stimulates the activation of lymphocytes).

For assay [4], the system named is SH1 (hairy cell carcinoma). In words: Apoptosis FACS in leukaemia cell line SH1. In kind it is cell-based. The settings on record: SH1, 0.2 μM gliotoxin, 24 h. On the procedure: FIG. 7: (A) The apoptotic activity of gliotoxin on further B-CLL patient samples (CLL4-CLL8) is illustrated. The (non-Notch2-associated) leukaemia cell lines (or the leukaemia cell lines not characterised by ligand-independent Notch2 fragments) Jurkat (T-ALL), SH1 (hairy cell carcinoma), RL-7 and K562 (CML) are resistant to a treatment with 0.2 μM (corresponding to 60 ng/ml) of gliotoxin. Cells were incubated for 24 h+/−gliotoxin, and the percentage of apoptotic cells (probidium-iodide+/annexinV+) was determined by means of FACS analysis. In none of the 4 non-Notch2-associated cell lines indicated, the application of 0.2 μM of gliotoxin led to a significant induction of apoptosis within 24 hours. The cytotoxic effect of Gliotoxin correlates with the Notch2 activity in leukemias. (B) Corresponding EMSA showing the activity of Notch2 in B-CLL cells and in leukemic cell lines (Jurkat, SH1, RL7, and K562).

The subject of assay [5] is SNU398 (hepatocellular carcinoma). In words: Cell count analysis SNU398. In kind it is cell-based, human. On the procedure:
as §1, §2

Assay [6] concerns Hep3B (hepatocellular carcinoma). In words: Cell count analysis Hep3B. In kind it is cell-based, human. The settings on record: 200 nM gliotoxin, 72 h. Here is the method: as §1, §2

SMILES strings stand for the structures.

Turning to `CN1C(=O)[C@]23CC4=CC=C[C@H](O)[C@H]4N2C(=O)[C@@]1(CO)SS3` [gliotoxin, [3R-(3α,5aβ,6β,10aα)]-2,3,5a,6-tetrahydro-6-hydroxy-3-(hydroxymethyl)-2-methyl-10H-3,10a-epi-dithiopyrazino[1,2-a]indol-1,4-dion], the “mean reduction of cell numbers compared to vehicle treated controls” value in assay [1] is 93%; in assay [3], 67%; in assay [5] (SNU398, 200 nM gliotoxin, 72 h) it was 96%; in assay [6] it was 88%. Also, in assay [2], the “apoptotic cells (annexin V and 7-AAD double positive)” value came to 47%. Moreover, the “Notch2 activity (band shift assay)” value in the assay with Notch2 is reported as “only partly inhibited”. Also, in the assay with B-CLL cells (B-CLL cells cultured 24 h with 0.2 μM gliotoxin, n=10), the “mean value of apoptosis” value stood at 73%. Further, the response is reported as around 100% in the assay with B-CLL cells (B-CLL-cases, 0.2 μM (60 ng/ml)) and around 100% in assay [5] (SNU-398, 0.2 μM (60 ng/ml)). In addition, the apoptosis in the assay on B-CLL cells (TPA-stimulated B-CLL cells) was found to be 73%; with B-CLL cells (non-stimulated B-CLL cells), 54%. In assay [4], the “induction of apoptosis (probidium-iodide+/annexinV+)” value was “resistant”.
